Measured values: patent US20130109712A1, “Statins for the Prevention or Treatment of Drug Addictions” (Universite de Poitiers, priority 2010, published 2013)

Key:
[1] = test system: cocaine-seeking behavior; experiment: Cocaine-seeking test (extinction session) after cocaine self-administration and 20-day abstinence; type: in vivo, Sprague-Dawley rats; settings: rats, simvastatin 1 mg/kg i.p. daily for 20 days of abstinence, 3 h extinction test
[2] = test system: nicotine-seeking behavior; experiment: Nicotine-seeking test (extinction session) after nicotine self-administration and 20-day abstinence; type: in vivo, Sprague-Dawley rats; settings: rats, simvastatin 1 mg/kg i.p. daily for 20 days of abstinence; 1 h extinction test; control approx. 100 active nose pokes
Protocol: Thus, the logic of the experiment is the following: • 1) the rats acquire self-administration under similar conditions; • 2) during withdrawal from self-administration, they are separated and receive, once a day for 20 days, an injection of simvastatin (1 mg/kg i.p) or a control solution; • 3) they are tested in a drug-seeking protocol in which their responses are not reinforced by the drug. Adult male (11-12 weeks old) Sprague-Dawley rats (Janvier, France), experimentally naive at the beginning of the study, are placed in the animal house with controlled temperature and degree of humidity, and are kept in a 12-hour light/dark cycle (light active at 7 am). As soon as they arrive, the rats are placed in cages in groups of 3 for one week, before beginning the surgery, consisting of the implantation of a catheter in the jugular vein. After the surgery and during the rest of the experiment, the rats are placed in cages individually. All the experiments are carried out during the “day” phase, in accordance with EC regulations for the use of animals in research (86/609/EEC). For the nicotine, 24 self-administration sessions are carried out using a fixed ratio 1 or 3 (FR1 or FR3) schedule of reinforcement, i.e., during the sessions, respectively one or three nose pokes in the active hole deliver an i.v. injection of nicotine. […]

CCC(C)(C)C(=O)O[C@H]1C[C@@H](C)C=C2C=C[C@H](C)[C@H](CC[C@@H]3C[C@@H](O)CC(=O)O3)[C@H]21 [simvastatin]
reduction in cocaine-seeking behavior vs control [1]: 45%
number of active nose pokes (drug-seeking behavior) ([1]; control approx. 350): approximately 190 active nose pokes
reduction in nicotine-seeking behavior vs control [2]: approximately 50%
